Assay results from article PMC12136037, “Type II kinase inhibitors that target Parkinson’s disease–associated LRRK2” (Science Advances, 2025).
Values joined by “and” are separate entries in the source; they are usually repeats but may differ in a detail not shown here. Equal entries are not always repeated. Where two headings read alike, the source gives them in different places.

Assays:
[1] = target: T1, TTK (Homo sapiens, UniProt P33981); experiment: nanoBRET off-target validation; format: cell-based
T1 construct: host or cells: HEK293T (ATCC CRL-3216)
T1 sequence (P33981 1-857): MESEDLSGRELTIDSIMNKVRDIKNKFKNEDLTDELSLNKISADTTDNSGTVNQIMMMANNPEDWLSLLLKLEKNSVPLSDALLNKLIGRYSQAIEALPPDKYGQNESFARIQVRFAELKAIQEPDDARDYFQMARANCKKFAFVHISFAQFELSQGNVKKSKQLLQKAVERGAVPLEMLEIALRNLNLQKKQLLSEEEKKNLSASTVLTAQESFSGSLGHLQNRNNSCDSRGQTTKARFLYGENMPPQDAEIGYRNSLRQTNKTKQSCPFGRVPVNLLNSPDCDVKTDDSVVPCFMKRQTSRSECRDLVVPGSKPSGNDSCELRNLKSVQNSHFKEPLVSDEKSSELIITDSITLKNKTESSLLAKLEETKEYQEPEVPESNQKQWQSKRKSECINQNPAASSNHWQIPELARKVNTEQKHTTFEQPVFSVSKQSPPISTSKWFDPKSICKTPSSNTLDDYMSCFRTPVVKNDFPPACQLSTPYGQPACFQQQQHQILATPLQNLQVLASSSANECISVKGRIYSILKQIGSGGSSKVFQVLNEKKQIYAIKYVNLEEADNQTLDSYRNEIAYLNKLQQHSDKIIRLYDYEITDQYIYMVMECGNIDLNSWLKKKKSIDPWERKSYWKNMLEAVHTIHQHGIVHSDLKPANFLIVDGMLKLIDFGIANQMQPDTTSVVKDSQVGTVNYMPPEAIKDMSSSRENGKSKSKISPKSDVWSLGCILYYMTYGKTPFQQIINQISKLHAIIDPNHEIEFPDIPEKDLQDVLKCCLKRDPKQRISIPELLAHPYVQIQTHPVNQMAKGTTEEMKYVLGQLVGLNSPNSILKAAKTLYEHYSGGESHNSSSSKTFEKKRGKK
Procedure: (§1) The assay was performed as described previously ([61]). In brief, full-length kinases as listed in table S6 were obtained as plasmids cloned in frame with terminal NanoLuc-fusion (gift from Promega; table S6). […] Serially diluted inhibitor and corresponding tracer as listed in table S6 at the Tracer KD concentration taken from TracerDB (tracerdb.org) ([62]) were pipetted into white 384-well plates (Greiner, 781207) using an ECHO acoustic dispenser (Labcyte). The corresponding protein-transfected cells were added and reseeded at a density of 2 × 10^5 cells/ml after trypsinization and resuspending in Opti-MEM without phenol red (Life Technologies). The system was allowed to equilibrate for 3 hours at 37°C/5% CO2 before bioluminescence resonance energy transfer (BRET) measurements. To measure BRET, NanoBRET NanoGlo Substrate + extracellular NanoLuc Inhibitor (Promega, N2540) was added as per the manufacturer’s protocol, and filtered luminescence was measured on a PHERAstar plate reader (BMG Labtech) equipped with a luminescence filter pair [450-nm BP filter (donor) and 610-nm LP filter (acceptor)]. […] (For step-by-step protocol, see www.eubopen.org/sites/www.eubopen.org/files/attachments/2021/NanoBRET-IC50_v1_0.pdf.)

[2] = target: T2, JNK2 (Homo sapiens, UniProt P45984); experiment: nanoBRET off-target validation; format: cell-based; conditions: JNK2, two replicates
T2 construct: host or cells: HEK293T (ATCC CRL-3216)
Procedure: as §1

T2 sequence (P45984 whole entry): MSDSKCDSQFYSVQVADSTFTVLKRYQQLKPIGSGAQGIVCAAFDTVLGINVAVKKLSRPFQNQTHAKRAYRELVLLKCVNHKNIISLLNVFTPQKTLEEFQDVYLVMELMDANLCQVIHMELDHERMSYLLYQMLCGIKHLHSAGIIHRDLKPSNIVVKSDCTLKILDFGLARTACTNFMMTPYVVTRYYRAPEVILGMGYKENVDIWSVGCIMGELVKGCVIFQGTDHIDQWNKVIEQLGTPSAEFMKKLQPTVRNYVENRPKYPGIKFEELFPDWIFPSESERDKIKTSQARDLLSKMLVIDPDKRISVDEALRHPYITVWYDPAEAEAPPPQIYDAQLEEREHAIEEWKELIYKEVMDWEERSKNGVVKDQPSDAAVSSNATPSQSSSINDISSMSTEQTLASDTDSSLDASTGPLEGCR

SMILES: CCSc1nc(NC)c2c(-c3cccc(NC(=O)Nc4cc(C(C)(C)C)nn4-c4ccc(C)cc4)c3)c[nH]c2n1 [Compound 32]
- nanoBRET response normalized to 0% (no tracer) and 100% (no inhibitor) control ([1]; TTK, inhibitor 8 nM, two replicates, listed as RN341, 0.008 µM): 91.3329%
- remaining activity at 0.008 µM ([1]; TTK, inhibitor 8 nM, two replicates, read-out: nanoBRET response normalized to 0% (no tracer) and 100% (no inhibitor) control): 96.9%
- nanoBRET response normalized to 0% (no tracer) and 100% (no inhibitor) control ([1]; TTK, inhibitor 16 nM, two replicates, listed as RN341, 0.016 µM): 88.618%
- remaining activity at 0.016 µM ([1]; TTK, inhibitor 16 nM, two replicates, read-out: nanoBRET response normalized to 0% (no tracer) and 100% (no inhibitor) control): 84.1%
- nanoBRET response normalized to 0% (no tracer) and 100% (no inhibitor) control ([1]; TTK, inhibitor 50 nM, two replicates, listed as RN341, 0.05 µM): 96.6909%
- remaining activity at 0.05 µM ([1]; TTK, inhibitor 50 nM, two replicates, read-out: nanoBRET response normalized to 0% (no tracer) and 100% (no inhibitor) control): 85.3%
- nanoBRET response normalized to 0% (no tracer) and 100% (no inhibitor) control ([1]; TTK, inhibitor 250 nM, two replicates, listed as RN341, […]): 83.1162%
- remaining activity at […] ([1]; TTK, inhibitor 250 nM, two replicates, read-out: nanoBRET response normalized to 0% (no tracer) and 100% (no inhibitor) control): 80%
- nanoBRET response normalized to 0% (no tracer) and 100% (no inhibitor) control ([1]; TTK, inhibitor 500 nM, two replicates, listed as RN341, 0.5 µM): 67.3053%
- remaining activity at 0.5 µM ([1]; TTK, inhibitor 500 nM, two replicates, read-out: nanoBRET response normalized to 0% (no tracer) and 100% (no inhibitor) control): 61.5%
- nanoBRET response normalized to 0% (no tracer) and 100% (no inhibitor) control ([1]; TTK, inhibitor 2500 nM, two replicates, listed as RN341, […]): 72.9908%
- remaining activity at […] ([1]; TTK, inhibitor 2500 nM, two replicates, read-out: nanoBRET response normalized to 0% (no tracer) and 100% (no inhibitor) control): 70.3%
- nanoBRET response normalized to 0% (no tracer) and 100% (no inhibitor) control ([1]; TTK, inhibitor 5000 nM, two replicates, listed as RN341, 5 µM): 54.1735%
- remaining activity at 5 µM ([1]; TTK, inhibitor 5000 nM, two replicates, read-out: nanoBRET response normalized to 0% (no tracer) and 100% (no inhibitor) control): 40.9%
- nanoBRET response normalized to 0% (no tracer) and 100% (no inhibitor) control ([1]; TTK, inhibitor 25000 nM, two replicates, listed as RN341, 25 µM): 18.6146%
- remaining activity at 25 µM ([1]; TTK, inhibitor 25000 nM, two replicates, read-out: nanoBRET response normalized to 0% (no tracer) and 100% (no inhibitor) control): 14.2%
- EC50 ([1]; in cellulo nanoBRET, 293T cells): < 5 µM and 3.2 µM
- nanoBRET response normalized to 0% (no tracer) and 100% (no inhibitor) control ([2]; inhibitor 8 nM, listed as RN341, 0.008 µM): 97.2218%
- remaining activity at 0.008 µM ([2]; inhibitor 8 nM, read-out: nanoBRET response normalized to 0% (no tracer) and 100% (no inhibitor) control): 103%
- nanoBRET response normalized to 0% (no tracer) and 100% (no inhibitor) control ([2]; inhibitor 16 nM, listed as RN341, 0.016 µM): 96.1223%
- remaining activity at 0.016 µM ([2]; inhibitor 16 nM, read-out: nanoBRET response normalized to 0% (no tracer) and 100% (no inhibitor) control): 95.8%
- nanoBRET response normalized to 0% (no tracer) and 100% (no inhibitor) control ([2]; inhibitor 50 nM, listed as RN341, 0.05 µM): 96.724%
- remaining activity at 0.05 µM ([2]; inhibitor 50 nM, read-out: nanoBRET response normalized to 0% (no tracer) and 100% (no inhibitor) control): 91.7%
- nanoBRET response normalized to 0% (no tracer) and 100% (no inhibitor) control ([2]; inhibitor 250 nM, listed as RN341, […]): 80.9747%
- remaining activity at […] ([2]; inhibitor 250 nM, read-out: nanoBRET response normalized to 0% (no tracer) and 100% (no inhibitor) control): 78.7%
- nanoBRET response normalized to 0% (no tracer) and 100% (no inhibitor) control ([2]; inhibitor 500 nM, listed as RN341, 0.5 µM): 61.7006%
- remaining activity at 0.5 µM ([2]; inhibitor 500 nM, read-out: nanoBRET response normalized to 0% (no tracer) and 100% (no inhibitor) control): 65.3%
- nanoBRET response normalized to 0% (no tracer) and 100% (no inhibitor) control ([2]; inhibitor 2500 nM, listed as RN341, […]): 73.4181%
- remaining activity at […] ([2]; inhibitor 2500 nM, read-out: nanoBRET response normalized to 0% (no tracer) and 100% (no inhibitor) control): 71.9%
- nanoBRET response normalized to 0% (no tracer) and 100% (no inhibitor) control ([2]; inhibitor 5000 nM, listed as RN341, 5 µM): 50.6395%
- remaining activity at 5 µM ([2]; inhibitor 5000 nM, read-out: nanoBRET response normalized to 0% (no tracer) and 100% (no inhibitor) control): 57.2%
- nanoBRET response normalized to 0% (no tracer) and 100% (no inhibitor) control ([2]; inhibitor 25000 nM, listed as RN341, 25 µM): 6.955%
